Measurements reported in article PMC7425875, “Identification of peptides interfering with the LRRK2/PP1 interaction” (PLoS ONE, 2020).
No end group written: not given here.

Tests used:
[1] = Analysis of peptide integrity in human serum (MALDI-TOF MS); format: in vitro ADME; settings: 37°C, different periods of time, mass spectrometry
Procedure: Peptides were incubated at 37°C in 250 μl of human serum (Sigma Aldrich) for different periods of time. Samples were collected and peptide degradation stopped by freezing. Peptides were extracted from samples using the Proteo Miner Protein Enrichment System (Bio-Rad). Percentage of intact peptide was estimated by mass spectrometry (MS) using MALDI-TOFF as described previously[19] (Bruker Autoflex II) following their protocol. Measurements were performed in triplicate. MS data were analysed using the software Cliprot tools, Felx analysis, Bruker.

[2] = target: T1, LRRK2/PP1 interaction (Homo sapiens, UniProt P62136); test: In vitro competition of LRRK2/PP1 interaction in anti-PP1 immunoprecipitates (western blot); format: binding; settings: 1 mM peptide, 30 min room temperature, MDA-MB231 lysates
T1 construct: MDA-MB231 cells were lysed and cytoplasmic extracts immunoprecipitated with anti-PP1 antibody (Santa Cruz); endogenous in cells; host or cells: MDA-MB231
Procedure: The protocol was previously described. Briefly, cells (5x10^6) were lysed for 20 min at 4°C in lysis buffer (50 mM Tris pH8, 1% NP40, 137 mM NaCl, 1 mM MgCl2, 1 mM CaCl2, 10% glycerol and protease inhibitor mixture Sigma Aldrich). Lysates (500 μg) were immunoprecipitated with the appropriated antibody overnight at 4°C and protein A/G Sepharose (Santa Cruz) was added for 1h at 4°C. After washing with 1x TBST (20 mM Tris-HCl pH7.5, 150 mM NaCl, 0.05% Tween 20), the PP1/LRRK2 interaction was competed using 1 mM of the Mut3DPT-LRRK2-Long or Mut3DPT-LRRK2-Shor peptide for 30 min at room temperature. After several washing steps, immunoprecipitates were separated by SDS-PAGE, transferred to nitrocellulose and blotted with anti PP1 antibody (Santa Cruz or Thermo Fisher 1:500 dilution). The membrane was washed and incubated with PO-conjugates secondary antibody (Dako, 1:1000 dilution). Protein detection was performed using the ECL system (Bio-Rad). As internal control, the blot was also hybridized with anti-LRRK2 antibody (Abcam, ab133474, 1;500 dilution). Western blots were densitometred using Image J. Statistic analysis were done using Anova.

T1 sequence (P62136 whole entry): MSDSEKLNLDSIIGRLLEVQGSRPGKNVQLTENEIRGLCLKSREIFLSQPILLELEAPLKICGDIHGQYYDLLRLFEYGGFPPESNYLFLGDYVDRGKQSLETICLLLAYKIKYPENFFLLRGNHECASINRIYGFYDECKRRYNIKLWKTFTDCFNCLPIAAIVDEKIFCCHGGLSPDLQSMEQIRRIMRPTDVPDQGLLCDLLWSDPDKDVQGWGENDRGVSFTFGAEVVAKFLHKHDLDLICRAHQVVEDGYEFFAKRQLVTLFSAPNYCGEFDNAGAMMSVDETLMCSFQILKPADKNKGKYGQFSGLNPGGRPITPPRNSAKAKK

Sequence	Resistance to degradation by proteases in human serum [1]	Competition of LRRK2/PP1 interaction (LRRK2 detected in anti-PP1 immunoprecipitates) [2]
THRPPMWSPVWPGFWSRLINRLLEI [BBB-LRRK2-Short]	only very limited degradation	
THRPPMWSPVWPPMGFWSRLINRLLEISPY [BBB-LRRK2-Long]	only very limited degradation	
VKKKKIKAEIKI [Mut3DPT, Optimized cell penetrating peptide (shuttle alone), derived from DPT-Sh1]		LRRK2 was detected
